US10836763B2, “5 to 7 membered heterocyclic amides as JAK inhibitors” (priority 2018, dated 2020)
Where two headings read alike, the source gives them in different places.

What was measured:
JAK2 = JAK2 (Homo sapiens (Human), UniProt O60674); test: Biochemical JAK kinase assay (LanthaScreen), JAK2
Protocol: (§1) Assay 1: Biochemical JAK Kinase Assays
(§2) A panel of four LanthaScreen JAK biochemical assays (JAK1, 2, 3 and Tyk2) were carried in a common kinase reaction buffer (50 mM HEPES, pH 7.5, 0.01% Brij-35, 10 mM MgCl2, and 1 mM EGTA). Recombinant GST-tagged JAK enzymes and a GFP-tagged STAT1 peptide substrate were obtained from Life Technologies.
(§3) Serially diluted compounds were pre-incubated with each of the four JAK enzymes and the substrate in white 384-well microplates (Corning) at ambient temperature for 1 h. ATP was subsequently added to initiate the kinase reactions in 10 μL total volume, with 1% DMSO. […] Kinase reactions were allowed to proceed for 1 hour at ambient temperature before a 10 μL preparation of EDTA (10 mM final concentration) and Tb-anti-pSTAT1 (pTyr701) antibody (Life Technologies, 2 nM final concentration) in TR-FRET dilution buffer (Life Technologies) was added. The plates were allowed to incubate at ambient temperature for 1 h before being read on the EnVision reader (Perkin Elmer). Emission ratio signals (520 nm/495 nm) were recorded and utilized to calculate the percent inhibition values based on DMSO and background controls.
(§4) For dose-response analysis, percent inhibition data were plotted vs. compound concentrations, and IC50 values were determined from a 4-parameter robust fit model with the Prism software (GraphPad Software). Results were expressed as pIC50 (negative logarithm of IC50) and subsequently converted to pKi (negative logarithm of dissociation constant, Ki) using the Cheng-Prusoff equation.

JAK3 = JAK3 (Homo sapiens (Human), UniProt P52333); format: biochemical
JAK3, sequence (P52333 whole entry): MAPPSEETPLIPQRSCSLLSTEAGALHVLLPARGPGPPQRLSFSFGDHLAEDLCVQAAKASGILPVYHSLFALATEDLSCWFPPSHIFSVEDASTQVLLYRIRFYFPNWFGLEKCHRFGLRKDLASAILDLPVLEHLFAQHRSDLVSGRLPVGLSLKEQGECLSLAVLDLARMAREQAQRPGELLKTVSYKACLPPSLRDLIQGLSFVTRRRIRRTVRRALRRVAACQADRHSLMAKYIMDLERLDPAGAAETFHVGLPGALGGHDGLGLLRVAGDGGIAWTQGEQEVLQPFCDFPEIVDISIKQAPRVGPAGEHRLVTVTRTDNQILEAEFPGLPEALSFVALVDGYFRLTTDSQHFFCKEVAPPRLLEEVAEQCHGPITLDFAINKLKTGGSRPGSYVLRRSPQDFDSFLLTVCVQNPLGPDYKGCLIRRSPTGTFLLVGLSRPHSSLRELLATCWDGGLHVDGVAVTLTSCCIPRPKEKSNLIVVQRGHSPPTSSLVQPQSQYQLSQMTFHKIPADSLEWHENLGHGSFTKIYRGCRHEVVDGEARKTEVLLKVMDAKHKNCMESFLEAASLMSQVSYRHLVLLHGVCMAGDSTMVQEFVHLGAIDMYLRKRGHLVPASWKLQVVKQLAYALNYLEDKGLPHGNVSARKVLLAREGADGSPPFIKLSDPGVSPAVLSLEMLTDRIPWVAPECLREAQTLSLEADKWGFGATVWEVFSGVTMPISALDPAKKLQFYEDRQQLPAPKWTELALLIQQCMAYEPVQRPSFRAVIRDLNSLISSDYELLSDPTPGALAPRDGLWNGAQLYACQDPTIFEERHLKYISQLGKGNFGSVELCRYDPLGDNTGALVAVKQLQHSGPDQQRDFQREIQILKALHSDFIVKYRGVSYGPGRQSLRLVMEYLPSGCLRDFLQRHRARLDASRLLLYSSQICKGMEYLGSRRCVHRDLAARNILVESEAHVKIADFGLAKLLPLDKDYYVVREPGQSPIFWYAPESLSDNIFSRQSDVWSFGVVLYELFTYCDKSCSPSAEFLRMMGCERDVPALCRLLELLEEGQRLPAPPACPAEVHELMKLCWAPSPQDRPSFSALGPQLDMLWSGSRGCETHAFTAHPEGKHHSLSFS
Protocol: as §1, §2, §3, §4

[1] = system: IL-13 induced pSTAT6 in lung tissue; test: Murine model of IL-13 induced pSTAT6 induction in lung tissue; format: in vivo, mouse; details: Balb/c mice, 1 mg/mL, 50 μL oral aspiration; IL-13 challenge 4 hours after compound; lung homogenate
Protocol: (§5) Assay 3: Murine (Mouse) Model of IL-13 Induced pSTAT6 Induction in Lung Tissue
IL-13 binds to cell surface receptors activating members of the Janus family of kinases (JAK) which then phosphorylate STAT6 and subsequently activates further transcription pathways. In the described model, a dose of IL-13 was delivered locally into the lungs of mice to induce the phosphorylation of STAT6 (pSTAT6) which is then measured as the endpoint.
Activity in the model is evidenced by a decrease in the level of pSTAT6 present in the lungs of treated animals at 5 hours compared to the vehicle treated, IL-13 challenged control animals. The difference between the control animals which were vehicle-treated, IL-13 challenged and the control animals which were vehicle-treated, vehicle challenged dictated the 0% and 100% inhibitory effect, respectively, in any given experiment.

[2] = Lung and plasma drug concentration in the murine IL-13 pSTAT6 model; format: in vivo; details: mouse, other: oral aspiration, 50 µg/mouse; for Kp at 5 h: Balb/c, lung ng/g to plasma ng/mL at 5 hours, mice, oral aspiration, read-out: Lung to Plasma ratio at 5 hr; for concentration at 5 h: Balb/c mice, 1 mg/mL, 50 μL oral aspiration, 5 hr post dose
Protocol: as §5
Adult Balb/c mice from Harlan were used in the assay. […] Animals were placed in lateral recumbency post dose and monitored for full recovery from anesthesia before being returned to their home cage. Four hours later, animals were once again briefly anesthetized and challenged with either vehicle or IL-13 (0.03 μg total dose delivered, 50 μL total volume) via oral aspiration before being monitored for recovery from anesthesia and returned to their home cage. One hour after vehicle or IL-13 administration, whole blood and lungs were collected for both pSTAT6 detection in lung homogenates using a Perkin Elmer AlphaLISA® SureFire® Ultra™ HV p-STAT6 (Tyr641) assay kit and for total drug concentration analysis in both lung and plasma. Blood samples were centrifuged (Eppendorf centrifuge, 5804R) for 4 minutes at approximately 12,000 rpm at 4° C. to collect plasma. […] Plasma and lung levels of test compound were determined by LC-MS analysis against analytical standards constructed into a standard curve in the test matrix. A lung to plasma ratio was determined as the ratio of the lung concentration in ng/g to the plasma concentration in ng/mL at 5 hours.

Lung S9 metabolism = format: in vitro ADME, human; details: for Compound Remaining at 60 min (%) / microsomal CLint at 1 µM: human lung S9, 1 μM compound, 1 mg/mL S9 protein, NADPH and PAPS; for microsomal CLint at 1 µM: lung S9 fraction, pH 7.4, read-out: Clearance; for Sulfate Appearance: qualitative, O-sulfate metabolite peak in human lung S9
Protocol: Assay 5: Lung S9 Metabolism […] Lung S9 fractions from human (lot 1410245) were purchased from XenoTech LLC (Lenexa, Kans.). NADPH (Sigma Aldrich, N1630) and 3-phosphoadenosine 5-phosphosulfate (PAPS) (Sigma Aldrich, A1651) were purchased from Sigma Aldrich (St. Louis, Mo.). Acetonitrile and water were obtained from VWR (Radnor, Pa.) and were of HPLC grade or better. Raloxifene and formic acid was purchased from Sigma Aldrich (St. Louis, Mo.). Lung S9 incubations were performed in a water bath at 37° C. in a 96-well polypropylene plate. […] All samples were centrifuged at 2250 g for 10 minutes at 5° C. Supernatant (50 μL) was taken from the centrifuged samples and diluted into 100 μL HPLC water containing internal standard. […] Mobile Phase A consisted of Water+0.2% formic acid and Mobile Phase B consisted of acetonitrile+0.2% formic acid. Peak integration was accomplished using Gubbs GMSU software (Gubbs Inc., Alpharetta, Ga.). For each sample, peak area ratios were calculated by dividing the analyte peak area by the internal standard peak area. […] Determination of sulfate metabolite formation was made qualitatively by observation of early-eluting peak in the parent ion channel which, based on historical internal data, corresponded to the O-sulfate metabolite of each parent compound.

[3] = ATP at Km 3 μM, pIC50 converted with Cheng-Prusoff
[4] = lung, read-out: Lung Concentration (ng/g) at 5 hr
[5] = plasma, read-out: Plasma Concentration (ng/mL) at 5 hr

JAK2, sequence (O60674 whole entry): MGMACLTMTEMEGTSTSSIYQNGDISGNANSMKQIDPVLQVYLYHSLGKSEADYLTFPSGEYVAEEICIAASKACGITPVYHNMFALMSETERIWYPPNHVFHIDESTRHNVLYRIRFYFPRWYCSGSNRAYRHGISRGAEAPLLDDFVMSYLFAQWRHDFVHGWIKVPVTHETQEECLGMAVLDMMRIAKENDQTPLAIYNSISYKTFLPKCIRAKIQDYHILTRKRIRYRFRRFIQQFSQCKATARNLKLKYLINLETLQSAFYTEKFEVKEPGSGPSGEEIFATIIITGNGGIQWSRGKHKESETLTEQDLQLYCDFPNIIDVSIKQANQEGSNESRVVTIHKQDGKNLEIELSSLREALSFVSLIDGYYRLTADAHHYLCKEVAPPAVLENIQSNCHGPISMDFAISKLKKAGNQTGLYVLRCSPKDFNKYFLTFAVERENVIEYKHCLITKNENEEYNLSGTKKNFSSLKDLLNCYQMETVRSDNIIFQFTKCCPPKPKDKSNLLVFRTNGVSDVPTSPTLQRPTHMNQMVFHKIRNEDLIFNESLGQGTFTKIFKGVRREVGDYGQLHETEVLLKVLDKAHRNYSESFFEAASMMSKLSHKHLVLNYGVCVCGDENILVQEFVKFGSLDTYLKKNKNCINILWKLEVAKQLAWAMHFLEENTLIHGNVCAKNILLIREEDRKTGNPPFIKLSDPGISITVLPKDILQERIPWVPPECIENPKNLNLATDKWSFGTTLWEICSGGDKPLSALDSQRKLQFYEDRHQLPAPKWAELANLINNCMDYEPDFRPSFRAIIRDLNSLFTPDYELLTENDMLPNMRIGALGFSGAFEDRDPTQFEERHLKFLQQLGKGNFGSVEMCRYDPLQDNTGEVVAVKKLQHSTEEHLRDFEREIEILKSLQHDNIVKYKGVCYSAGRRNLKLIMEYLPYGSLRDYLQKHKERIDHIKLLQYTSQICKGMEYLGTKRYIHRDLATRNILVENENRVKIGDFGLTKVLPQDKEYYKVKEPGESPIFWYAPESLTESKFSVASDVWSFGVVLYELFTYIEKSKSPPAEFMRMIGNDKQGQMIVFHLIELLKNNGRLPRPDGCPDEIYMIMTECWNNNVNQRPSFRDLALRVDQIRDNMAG

SMILES: CCCN1Cc2[nH]c(-c3n[nH]c4cc(-c5ccc(O)cc5CC)ccc34)nc2C[C@H]1C(=O)N1CCN(CCO)CC1 [Compound 1, (S)-(2-(6-(2-ethyl-4-hydroxyphenyl)-1H-indazol-3-yl)-5-propyl-4,5,6,7-tetrahydro-3H-imidazo[4,5-c]pyridin-6-yl)(4-(2-hydroxyethyl)piperazin-1-yl)methanone]
- JAK2 pKi (JAK2; [3]): 10.3
- JAK3 PKi (JAK3; ATP at Km 1.6 μM, pIC50 converted with Cheng-Prusoff): 9.8
- pSTAT6 inhibition at 5 hours [1]: 67%
- Kp at 5 h [2]: 1260
- concentration at 5 h [2, 4]: 13000 ± 5720 ng/g
- concentration at 5 h [2, 5]: 10.3 ± 3.9 ng/mL
- Compound Remaining at 60 min (%) (Lung S9 metabolism): 78%
- microsomal CLint at 1 µM (Lung S9 metabolism): 4.2 µL/min/mg
- Sulfate Appearance (Lung S9 metabolism): Yes

SMILES: CCCN1Cc2[nH]c(-c3n[nH]c4cc(-c5cc(F)c(O)cc5CC)ccc34)nc2C[C@H]1C(=O)N1C[C@@H]2C[C@H]1CN2C [Compound C-2, ((S)-2-(6-(2-ethyl-5-fluoro-4-hydroxyphenyl)-1H-indazol-3-yl)-5-propyl-4,5,6,7-tetrahydro-3H-imidazo[4,5-c]pyridin-6-yl)((1S,4S)-5-methyl-2,5-diazabicyclo-[2.2.1]heptan-2-yl)methanone, reference compound]
- JAK2 pKi (JAK2; [3]): 10.8
- JAK3 PKi (JAK3): 9.9
- Compound Remaining at 60 min (%) (Lung S9 metabolism): 3%
- microsomal CLint at 1 µM (Lung S9 metabolism): 61 µL/min/mg
- Sulfate Appearance (Lung S9 metabolism): Yes

SMILES: CCc1cc(O)ccc1-c1ccc2c(-c3nc4c([nH]3)CN(C)[C@H](C(=O)N3CCN(CCO)C[C@H]3C)C4)n[nH]c2c1 [Compound 5, ((S)-2-(6-(2-ethyl-4-hydroxyphenyl)-1H-indazol-3-yl)-5-methyl-4,5,6,7-tetrahydro-3H-imidazo[4,5-c]pyridin-6-yl)((R)-4-(2-hydroxyethyl)-2-methylpiperazin-1-yl)methanone]
- JAK2 pKi (JAK2): 10.5
- JAK3 PKi (JAK3): 10.1
- pSTAT6 inhibition at 5 hours [1]: 73%
- Kp at 5 h [2]: 418
- concentration at 5 h [2, 4]: 5440 ± 1860 ng/g
- concentration at 5 h [2, 5]: 13 ± 3.7 ng/mL
- Compound Remaining at 60 min (%) (Lung S9 metabolism): 80%
- microsomal CLint at 1 µM (Lung S9 metabolism): 3.7 µL/min/mg
- Sulfate Appearance (Lung S9 metabolism): Yes

SMILES: CCc1cc(O)ccc1-c1ccc2c(-c3nc4c([nH]3)CN(C(C)C)[C@H](C(=O)N3CC[C@H](N(C)C)C3)C4)n[nH]c2c1 [Compound 6, ((S)-3-(dimethylamino)pyrrolidin-1-yl)((S)-2-(6-(2-ethyl-4-hydroxyphenyl)-1H-indazol-3-yl)-5-isopropyl-4,5,6,7-tetrahydro-3H-imidazo[4,5-c]pyridin-6-yl)methanone]
- JAK2 pKi (JAK2): 10.4
- JAK3 PKi (JAK3): 10.0
- pSTAT6 inhibition at 5 hours [1]: 37%
- Kp at 5 h [2]: 1030
- concentration at 5 h [2, 4]: 11600 ± 4680 ng/g
- concentration at 5 h [2, 5]: 11.3 ± 5.7 ng/mL
- Compound Remaining at 60 min (%) (Lung S9 metabolism): 82%
- microsomal CLint at 1 µM (Lung S9 metabolism): 3.4 µL/min/mg
- Sulfate Appearance (Lung S9 metabolism): Yes

SMILES: CCc1cc(O)ccc1-c1ccc2c(-c3nc4c([nH]3)CN(C(C)C)[C@H](C(=O)N3CCCN(C)CC3)C4)n[nH]c2c1 [Compound 4, (S)-(2-(6-(2-ethyl-4-hydroxyphenyl)-1H-indazol-3-yl)-5-isopropyl-4,5,6,7-tetrahydro-3H-imidazo[4,5-c]pyridin-6-yl)(4-methyl-1,4-diazepan-1-yl)methanone]
- JAK2 pKi (JAK2): 10.4
- JAK3 PKi (JAK3): 10.1
- pSTAT6 inhibition at 5 hours [1]: 67%
- Kp at 5 h [2]: 788
- concentration at 5 h [2, 4]: 17400 ± 6620 ng/g
- concentration at 5 h [2, 5]: 22 ± 23 ng/mL
- Compound Remaining at 60 min (%) (Lung S9 metabolism): 88%
- microsomal CLint at 1 µM (Lung S9 metabolism): 2.1 µL/min/mg
- Sulfate Appearance (Lung S9 metabolism): Yes

SMILES: CCc1cc(O)c(F)cc1-c1ccc2c(-c3nc4c([nH]3)CN(C)[C@H](C(=O)N3CCN(C)C[C@@H]3C)C4)n[nH]c2c1 [Compound C-3, ((S)-2,4-dimethylpiperazin-1-yl)((S)-2-(6-(2-ethyl-5-fluoro-4-hydroxyphenyl)-1H-indazol-3-yl)-5-methyl-4,5,6,7-tetrahydro-3H-imidazo[4,5-c]pyridin-6-yl)methanone, reference compound]
- JAK2 pKi (JAK2; [3]): 10.5
- JAK3 PKi (JAK3): 9.7
- Compound Remaining at 60 min (%) (Lung S9 metabolism): 14%
- microsomal CLint at 1 µM (Lung S9 metabolism): 33.2 µL/min/mg
- Sulfate Appearance (Lung S9 metabolism): Yes

SMILES: CCc1cc(O)c(F)cc1-c1ccc2c(-c3nc4c([nH]3)CN(C(C)C)[C@H](C(=O)N3CCCN(C)CC3)C4)n[nH]c2c1 [Compound C-4, (S)-(2-(6-(2-ethyl-5-fluoro-4-hydroxyphenyl)-1H-indazol-3-yl)-5-isopropyl-4,5,6,7-tetrahydro-3H-imidazo[4,5-c]pyridin-6-yl)(4-methyl-1,4-diazepan-1-yl)methanone, reference compound]
- JAK2 pKi (JAK2; [3]): 10.6
- JAK3 PKi (JAK3): 9.8
- Compound Remaining at 60 min (%) (Lung S9 metabolism): 4%
- microsomal CLint at 1 µM (Lung S9 metabolism): 53.4 µL/min/mg
- Sulfate Appearance (Lung S9 metabolism): Yes

SMILES: CCCN1Cc2[nH]c(-c3n[nH]c4cc(-c5cc(F)c(O)cc5CC)ccc34)nc2C[C@H]1C(=O)N1CCN(CCO)CC1 [Compound C-1, (S)-(2-(6-(2-ethyl-5-fluoro-4-hydroxyphenyl)-1H-indazol-3-yl)-5-propyl-4,5,6,7-tetrahydro-3H-imidazo[4,5-c]pyridin-6-yl)(4-(2-hydroxyethyl)piperazin-1-yl)methanone, reference compound]
- JAK2 pKi (JAK2; [3]): 10.5
- JAK3 PKi (JAK3): 9.7
- Compound Remaining at 60 min (%) (Lung S9 metabolism): 29%
- microsomal CLint at 1 µM (Lung S9 metabolism): 20.8 µL/min/mg
- Sulfate Appearance (Lung S9 metabolism): Yes

SMILES: CCc1cc(O)c(F)cc1-c1ccc2c(-c3nc4c([nH]3)CN(C)[C@H](C(=O)N3CCN(CCO)C[C@H]3C)C4)n[nH]c2c1 [Compound C-5, ((S)-2-(6-(2-ethyl-5-fluoro-4-hydroxyphenyl)-1H-indazol-3-yl)-5-methyl-4,5,6,7-tetrahydro-3H-imidazo[4,5-c]pyridin-6-yl)((R)-4-(2-hydroxyethyl)-2-methyl-piperazin-1-yl)methanone, reference compound]
- JAK2 pKi (JAK2; [3]): 10.7
- JAK3 PKi (JAK3): 9.9
- Compound Remaining at 60 min (%) (Lung S9 metabolism): 8%
- microsomal CLint at 1 µM (Lung S9 metabolism): 42.2 µL/min/mg
- Sulfate Appearance (Lung S9 metabolism): Yes
